The results in this text go back to PMC7747594, “Protease-activated receptor-2 ligands reveal orthosteric and allosteric mechanisms of receptor inhibition” (Communications Biology, 2020).

SMILES strings stand for the structures. Where “and” joins values, the source holds several entries; their conditions need not be identical. Identical values can stand only once.

What all share (assay type): in vivo
One assay concerns neutrophils. Put plainly: Immunohistochemistry, neutrophil elastase-positive (NE+ve) neutrophils in rat paw. Conditions: for NE +ve cells (% max): 2f-induced rat paw oedema, individual animals (Figure 5h); for decrease of NE+ve cells by 2f-LIGRLO-NH2: pre-treatment, 30 min. As for the experimental part:
(§1) Tissues were then embedded with Optimal Cutting Temperature compound (OCT, Sakura Finetek, USA) and stored at −80 °C before making cryo-sections for histological analysis. Frozen sections (5 µm) were made using a cryostat-microtome (Leica Biosystems, Germany). […] Slides were then dehydrated and mounted in DPX mountant (Sigma-Aldrich, USA). For immunohistochemistry, slides were briefly rinsed with PBS to remove OCT. Except for tryptase staining, antigen retrieval was performed by incubating slides in citrate buffer (0.01 M, pH 6) at 95 °C for 20 min. They were then cooled down briefly and incubated with blocking medium (PBS, 0.1% Triton X-100, 10% horse serum) for 1 h at room temperature in a humidity chamber. Samples were incubated with primary antibody medium (PBS, 0.1% Triton X-100, 4% horse serum; 1:100 primary antibody including – histamine, neutrophil elastase or ED1 antibodies) overnight at 4 °C. The next day, samples were washed with PBS and incubated with the secondary antibody medium (PBS, 0.1% Triton X-100, 4% horse serum, detection antibody 1:200) for 2 h at room temperature. For tryptase staining, slides were incubated with primary antibody medium (as above with tryptase antibody at 1:100 dilution) for 4 h, then the secondary antibody medium for 2 h. Finally, slides were dried, counterstained with DAPI (Invitrogen, Australia), and sealed with clear nail polish. Primary antibodies for tryptase (AA1, ab2378, Abcam, Australia), histamine (H7403, Sigma-Aldrich, USA), neutrophil elastase (ab21595, Abcam, Australia) and ED1 (ab31630, Abcam, Australia) were purchased from commercial sources. Secondary detection antibody was purchased from Abcam, Australia.

For a further assay, the system named is mast cells. Nature of the assay: Immunohistochemistry, tryptase-positive (AA1+ve) intact mast cells in rat paw. Conditions: for AA +ve cells (% max): 2f-induced rat paw oedema, individual animals (Figure 5c); for decrease of tryptase-positive mast cells by 2f-LIGRLO-NH2: pre-treatment, 30 min. Here is the method: as §1
The next assay concerns the target T1, PAR2 (Rattus norvegicus, UniProt Q63645).
T1 construct: from tissue; host or cells: hind paw of male Wistar rats, in vivo
T1 sequence (Q63645 26-397): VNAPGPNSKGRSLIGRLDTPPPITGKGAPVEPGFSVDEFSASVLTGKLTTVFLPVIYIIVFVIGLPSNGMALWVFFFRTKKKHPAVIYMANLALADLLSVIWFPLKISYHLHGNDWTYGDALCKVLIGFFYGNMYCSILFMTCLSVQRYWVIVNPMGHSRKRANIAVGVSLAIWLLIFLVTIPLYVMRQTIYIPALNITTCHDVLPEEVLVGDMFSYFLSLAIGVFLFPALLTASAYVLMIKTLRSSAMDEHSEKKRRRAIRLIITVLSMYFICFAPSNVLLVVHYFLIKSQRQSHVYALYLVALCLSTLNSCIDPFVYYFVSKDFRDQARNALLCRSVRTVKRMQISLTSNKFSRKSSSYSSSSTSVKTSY
Put plainly: PAR2 agonist (2f-LIGRLO-NH2)-induced rat paw oedema, paw swelling. Conditions: for reduction of paw swelling: Wistar rats; for % swelling: 2f-induced rat paw oedema, individual animals (Figure 5a); for paw swelling: AZ3451 10 mg kg^−1 s.c. 30 min before, AZ8838 10 mg kg^−1 p.o. 2 h before 2f-LIGRLO-NH2; for anti-inflammatory activity in vivo after oral delivery / anti-inflammatory activity in vivo after subcutaneous injection: rat paw oedema. Here is the method:
Following Australian ethical standards, animals were air transported to the Institute for Bioengineering and Nanotechnology (University of Queensland, Australia). Animals were housed at room temperature and kept in 12 h light/dark cycles, with standard chow and water provided ad libitum, for at least a 48 h acclimatisation period before experiments. […] Saline only was given to sham paws. […] Control animals received either DMSO s.c. or 20% DMSO/80% olive oil via oral gavage. […] At the 30 min time point, a portion of animals was euthanised by CO2 inhalation and their paws collected for further analyses. All in vivo experimental procedures and animal handling were conducted with approval from the Animal Ethics Committee at the University of Queensland which follows NHMRC and ARRIVE guidelines. After experimentation, animals are humanely euthanized by CO2 inhalation as stipulated by the ethical agreements.
Experimental results were expressed as mean ± s.e.m. Graphs were plotted and data analysed using GraphPad Prism7. Statistical differences were assessed using Student’s t-tests (two-tailed) for data sets of two, one-way ANOVA for data sets of three or more with Bonferroni post-hoc tests, or two-way repeated-measures ANOVA with Tukey post-hoc tests for temporal data sets, as appropriate. Significance was set at ^+p < 0.05, ^++p < 0.01, ^+++p < 0.001, ^++++p < 0.0001 compared to sham, and *p < 0.05, **p < 0.01, ***p < 0.001, ****p < 0.0001 compared to disease control.

As for `C[C@@H](C1CCCCC1)n1c(-c2cc3c(cc2Br)OCO3)nc2cc(C(=O)Nc3ccc(C#N)cc3)ccc21` [AZ3451], in the assay on neutrophils, the “NE +ve cells (% max)” value was 135.782 % max and 55.9949 % max and 85.0488 % max and 57.3155 % max; the “decrease of NE+ve cells by 2f-LIGRLO-NH2” value is reported as “partially inhibited”. Also, in the assay on mast cells, the “AA +ve cells (% max)” value was 91.7692 % max and 45.8846 % max and 58.1835 % max and 66.6982 % max; the “decrease of tryptase-positive mast cells by 2f-LIGRLO-NH2” value is “partly blocked”. Also, the “reduction of paw swelling” value on PAR2 (10 mg kg^−1 s.c. 30 min prior to 2f-LIGRLO-NH2 350 µg per paw) is on record as 60%. Moreover, the “% swelling” value on PAR2 (Time 0 h) is 0%. Besides, the “% swelling” value on PAR2 (Time 0.5 h) was 48.3188% and 41.0115% and 38.4554% and 0.2044%. Moreover, the “% swelling” value on PAR2 (Time 1 h) is 31.4446% and 1.303% and 21.2807% and 5.312%. The “% swelling” value on PAR2 (Time 2 h) was 1.7017% and 2.985% and 4.564% and -2.962%. The “% swelling” value on PAR2 (Time 4 h) is 3.1932% and 1.708% and -5.029% and 2.557%. Also, on PAR2, the paw swelling entry is “significantly reduced paw swelling”, the “anti-inflammatory activity in vivo after oral delivery” value was “not after oral delivery” and the “anti-inflammatory activity in vivo after subcutaneous injection” value is listed as “active in vivo”.

Take `CCCc1cc(F)ccc1C(O)c1ncc[nH]1` (centres unmarked) [AZ8838]: in the assay with neutrophils, the “NE +ve cells (% max)” value was 83.5679 % max and 62.4433 % max and 139.912 % max and 107.932 % max and 66.1651 % max; the “decrease of NE+ve cells by 2f-LIGRLO-NH2” value is “partially inhibited”. Also, in the assay with mast cells, the “AA +ve cells (% max)” value is 70.0073 % max and 71.1692 % max and 108.061 % max and 60.4212 % max and 59.2593 % max; the “decrease of tryptase-positive mast cells by 2f-LIGRLO-NH2” value is given as “partly blocked”. For the same compound, the “reduction of paw swelling” value on PAR2 (10 mg kg^−1 p.o. 2 h prior to 2f-LIGRLO-NH2 350 µg per paw) was 60%. In addition, the “% swelling” value on PAR2 (Time 0 h) came to 0%. The “% swelling” value at PAR2 (Time 0.5 h) is 24.8579% and 43.6327% and 41.4698% and 6.42%. For the same compound, the “% swelling” value on PAR2 (Time 1 h) was 17.7725% and 33.5029% and 21.2259% and 5.253%. Moreover, the “% swelling” value on PAR2 (Time 2 h) was -0.8821% and 11.1837% and 14.1177% and -4.556%. The “% swelling” value on PAR2 (Time 4 h) was -4.225% and 3.626% and 12.7121% and -4.201%. Besides, at PAR2, the paw swelling result is on record as “significantly reduced paw swelling”, the “anti-inflammatory activity in vivo after oral delivery” value is “anti-inflammatory in vivo” and the “anti-inflammatory activity in vivo after subcutaneous injection” value is on record as “anti-inflammatory in vivo”.
